Source: PubChem BioAssay (NCI)
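Values below derive from 48-hour exposures of cells grown in 96-well plates, with endpoints linearly interpolated between the two concentrations bracketing the appropriate inhibition level. GI50 = concentration required for 50% inhibition of growth. Definition used: TGI = concentration required for complete inhibition of growth.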

Legend:
Test in all cases: NCI-60 cell line screen, 48 h
786-0 renal = system: 786-0 renal
A549 NSCLC = system: A549 NSCLC
ACHN renal = system: ACHN renal
BT-549 breast = system: BT-549 breast
CAKI-1 renal = system: CAKI-1 renal
CCRF-CEM leukemia = system: CCRF-CEM leukemia
COLO 205 colon = system: COLO 205 colon
DU-145 prostate = system: DU-145 prostate
EKVX NSCLC = system: EKVX NSCLC
HCC-2998 colon = system: HCC-2998 colon
HCT-116 colon = system: HCT-116 colon
HCT-15 colon = system: HCT-15 colon
HL-60(TB) leukemia = system: HL-60(TB) leukemia
HOP-62 NSCLC = system: HOP-62 NSCLC
HOP-92 NSCLC = system: HOP-92 NSCLC
HS 578T breast = system: HS 578T breast
HT29 colon = system: HT29 colon
IGROV1 ovarian = system: IGROV1 ovarian
K-562 leukemia = system: K-562 leukemia
KM12 colon = system: KM12 colon
LOX IMVI melanoma = system: LOX IMVI melanoma
M14 melanoma = system: M14 melanoma
MALME-3M melanoma = system: MALME-3M melanoma
MCF7 breast = system: MCF7 breast
MDA-MB-231 breast = system: MDA-MB-231 breast
MDA-MB-435 = system: MDA-MB-435
MOLT-4 leukemia = system: MOLT-4 leukemia
NCI-H226 lung = system: NCI-H226 lung
NCI-H23 lung = system: NCI-H23 lung
NCI-H460 lung = system: NCI-H460 lung
NCI-H522 lung = system: NCI-H522 lung
NCI/ADR-RES ovarian = system: NCI/ADR-RES ovarian
OVCAR-3 ovarian = system: OVCAR-3 ovarian
OVCAR-4 ovarian = system: OVCAR-4 ovarian
OVCAR-5 ovarian = system: OVCAR-5 ovarian
OVCAR-8 ovarian = system: OVCAR-8 ovarian
PC-3 prostate = system: PC-3 prostate
RPMI-8226 leukemia = system: RPMI-8226 leukemia
RXF 393 renal = system: RXF 393 renal
SF-268 CNS = system: SF-268 CNS
SF-295 CNS = system: SF-295 CNS
SF-539 CNS = system: SF-539 CNS
SK-MEL-2 melanoma = system: SK-MEL-2 melanoma
SK-MEL-28 melanoma = system: SK-MEL-28 melanoma
SK-MEL-5 melanoma = system: SK-MEL-5 melanoma
SK-OV-3 ovarian = system: SK-OV-3 ovarian
SNB-19 CNS = system: SNB-19 CNS
SNB-75 CNS = system: SNB-75 CNS
SR leukemia = system: SR leukemia
SW-620 colon = system: SW-620 colon
T-47D breast = system: T-47D breast
TK-10 renal = system: TK-10 renal
U251 CNS = system: U251 CNS
UACC-257 melanoma = system: UACC-257 melanoma
UACC-62 melanoma = system: UACC-62 melanoma
UO-31 renal = system: UO-31 renal

## CCOC(=O)/C=C/C(=O)[C@H](CC(C)C)NC(=O)[C@H](Cc1ccccc1)NC(=O)OCc1ccccc1
786-0 renal
  GI50: 1.84 µM
  TGI: 3.4 µM
A549 NSCLC
  GI50: 20.7 µM
  TGI: 39.6 µM
ACHN renal
  GI50: 2.36 µM
  TGI: 5.72 µM
BT-549 breast
  GI50: 14.4 µM
  TGI: 27.6 µM
CAKI-1 renal
  GI50: 8.82 µM
  TGI: 21.7 µM
CCRF-CEM leukemia
  GI50: 2.58 µM
  TGI: 18.8 µM
COLO 205 colon
  GI50: 2.46 µM
  TGI: 5.83 µM
DU-145 prostate
  GI50: 3.1 µM
  TGI: 11.5 µM
EKVX NSCLC
  GI50: 15.6 µM
  TGI: 29 µM
HCC-2998 colon
  GI50: 15.6 µM
  TGI: 30.1 µM
HCT-116 colon
  GI50: 2.87 µM
  TGI: 9.43 µM
HCT-15 colon
  GI50: 1.83 µM
  TGI: 3.78 µM
HL-60(TB) leukemia
  GI50: 2.26 µM
  TGI: 9.67 µM
HOP-62 NSCLC
  GI50: 14.4 µM
  TGI: 29.6 µM
HOP-92 NSCLC
  GI50: 2.56 µM
  TGI: 6.99 µM
HS 578T breast
  GI50: 10.9 µM
  TGI: 67.9 µM
HT29 colon
  GI50: 5.44 µM
  TGI: 38.6 µM
IGROV1 ovarian
  GI50: 2.32 µM
  TGI: 4.89 µM
K-562 leukemia
  GI50: 2.09 µM
  TGI: 10.5 µM
KM12 colon
  GI50: 12.2 µM
  TGI: 27.8 µM
LOX IMVI melanoma
  GI50: 1.76 µM
  TGI: 3.39 µM
M14 melanoma
  GI50: 3.54 µM
  TGI: 13.2 µM
MALME-3M melanoma
  GI50: 3.89 µM
  TGI: 15.3 µM
MCF7 breast
  GI50: 1.73 µM
  TGI: 4.8 µM
MDA-MB-231 breast
  GI50: 2.92 µM
  TGI: 6.35 µM
MDA-MB-435
  GI50: 6.58 µM
  TGI: 20.1 µM
MOLT-4 leukemia
  GI50: 2.42 µM
  TGI: 9.25 µM
NCI-H226 lung
  GI50: 26.4 µM
  TGI: 60.4 µM
NCI-H23 lung
  GI50: 11.3 µM
  TGI: 32.8 µM
NCI-H460 lung
  GI50: 16.2 µM
  TGI: 38.2 µM
NCI-H522 lung
  GI50: 2.1 µM
  TGI: 4.37 µM
NCI/ADR-RES ovarian
  GI50: 12.3 µM
  TGI: 93.1 µM
OVCAR-3 ovarian
  GI50: 3.19 µM
  TGI: 10.4 µM
OVCAR-4 ovarian
  GI50: 12.9 µM
  TGI: 26.6 µM
OVCAR-5 ovarian
  GI50: 14.3 µM
  TGI: 31.1 µM
OVCAR-8 ovarian
  GI50: 18.4 µM
  TGI: 60.4 µM
PC-3 prostate
  GI50: 4.39 µM
  TGI: 16.4 µM
RPMI-8226 leukemia
  GI50: 2.13 µM
  TGI: 5.97 µM
RXF 393 renal
  GI50: 2.03 µM
  TGI: 3.64 µM
SF-268 CNS
  GI50: 3.3 µM
  TGI: 13.3 µM
SF-295 CNS
  GI50: 16.2 µM
  TGI: 29.8 µM
SF-539 CNS
  GI50: 2.45 µM
  TGI: 6.04 µM
SK-MEL-2 melanoma
  GI50: 13.8 µM
  TGI: 27.1 µM
SK-MEL-28 melanoma
  GI50: 3.12 µM
  TGI: 12 µM
SK-MEL-5 melanoma
  GI50: 16.4 µM
  TGI: 31.1 µM
SK-OV-3 ovarian
  GI50: 18.6 µM
  TGI: 32.6 µM
SNB-19 CNS
  GI50: 12.6 µM
  TGI: 28.1 µM
SNB-75 CNS
  GI50: 12.6 µM
  TGI: 25.4 µM
SR leukemia
  GI50: 2.39 µM
  TGI: 6.32 µM
SW-620 colon
  GI50: 2.86 µM
  TGI: 8.16 µM
T-47D breast
  GI50: 2.1 µM
  TGI: 4.66 µM
TK-10 renal
  GI50: 1.87 µM
  TGI: 3.81 µM
U251 CNS
  GI50: 13.2 µM
  TGI: 27.2 µM
UACC-257 melanoma
  GI50: 15 µM
  TGI: 29.2 µM
UACC-62 melanoma
  GI50: 3.99 µM
  TGI: 16.5 µM
UO-31 renal
  GI50: 1.78 µM
  TGI: 3.66 µM
